Test results published in article PMC9297976 (Journal of Applied Toxicology, 2021).

Assays:
[1] = system: Japanese medaka (Oryzias latipes); experiment: Fish Short‐Term Reproduction Assay; type: in vivo; settings: for GSI Female / GSI Male / HSI Female / HSI Male / Length Female / Length Male / Weight Female / Weight Male: completion of exposure
[2] = target: T1, medaka ARβ (mArβ) (Oryzias latipes, UniProt D1MV73); experiment: Medaka ARβ reporter gene assay, agonist assay; type: cell-based, Japanese medaka (Oryzias latipes); settings: MAC = 1.0 × 10^−4 M
T1 sequence (D1MV73 1-744): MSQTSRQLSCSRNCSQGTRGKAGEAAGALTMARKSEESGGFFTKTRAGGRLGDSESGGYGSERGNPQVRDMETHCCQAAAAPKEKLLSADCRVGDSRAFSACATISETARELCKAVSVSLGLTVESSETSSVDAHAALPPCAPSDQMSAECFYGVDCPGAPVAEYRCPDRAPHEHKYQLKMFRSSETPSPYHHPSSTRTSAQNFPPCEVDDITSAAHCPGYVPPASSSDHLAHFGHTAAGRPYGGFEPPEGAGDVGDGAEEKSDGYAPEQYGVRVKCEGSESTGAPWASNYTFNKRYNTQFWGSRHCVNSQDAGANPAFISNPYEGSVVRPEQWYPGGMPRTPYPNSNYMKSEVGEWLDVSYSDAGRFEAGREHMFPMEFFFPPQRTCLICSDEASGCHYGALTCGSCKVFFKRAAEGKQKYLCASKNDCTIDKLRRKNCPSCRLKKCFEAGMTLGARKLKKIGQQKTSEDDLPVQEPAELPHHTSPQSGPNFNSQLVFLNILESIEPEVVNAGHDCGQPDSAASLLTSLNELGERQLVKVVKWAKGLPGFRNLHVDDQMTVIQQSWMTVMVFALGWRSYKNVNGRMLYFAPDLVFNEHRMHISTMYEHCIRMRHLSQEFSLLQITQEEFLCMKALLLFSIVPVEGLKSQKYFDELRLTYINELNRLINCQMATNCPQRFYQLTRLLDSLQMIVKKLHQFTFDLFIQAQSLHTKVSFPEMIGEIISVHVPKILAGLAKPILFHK

[3] = target: T2, medaka Esr1 (mEsr1) (Oryzias latipes, UniProt P50241); experiment: cell-based; design: species or system Japanese medaka (Oryzias latipes); settings: mode of action in which EC50 or PC10 was obtained in RGA
T2 sequence (P50241 1-620): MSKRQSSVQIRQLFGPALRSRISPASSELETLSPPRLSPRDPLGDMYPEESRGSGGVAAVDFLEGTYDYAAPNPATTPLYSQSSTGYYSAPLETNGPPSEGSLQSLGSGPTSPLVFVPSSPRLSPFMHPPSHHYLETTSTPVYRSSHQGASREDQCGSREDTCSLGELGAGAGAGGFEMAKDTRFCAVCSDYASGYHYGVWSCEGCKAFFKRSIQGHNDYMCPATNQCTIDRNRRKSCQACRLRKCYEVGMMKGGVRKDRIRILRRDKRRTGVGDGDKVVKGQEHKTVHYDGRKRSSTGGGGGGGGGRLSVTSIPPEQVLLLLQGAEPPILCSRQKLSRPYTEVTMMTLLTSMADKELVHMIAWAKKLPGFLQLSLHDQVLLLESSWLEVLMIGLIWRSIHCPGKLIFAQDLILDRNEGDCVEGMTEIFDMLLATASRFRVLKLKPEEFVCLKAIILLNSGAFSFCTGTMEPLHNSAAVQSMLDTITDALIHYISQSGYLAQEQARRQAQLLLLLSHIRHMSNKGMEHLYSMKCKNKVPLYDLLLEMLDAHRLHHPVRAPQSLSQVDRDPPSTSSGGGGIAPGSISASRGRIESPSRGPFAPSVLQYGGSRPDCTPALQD

[4] = system: Japanese medaka; settings: 12 h after fertilization to 101 days of age; ref Seki, Yokota, Matsubara, et al. (2003); cited from earlier work
[5] = target: T2, medaka Esr1 (mEsr1); experiment: Medaka Esr1 reporter gene assay, antagonist assay; type: cell-based, Japanese medaka (Oryzias latipes); settings: E2 spiked at 1.0 nM (B); MAC = 1.0 × 10^−5 M
[6] = target: T1, medaka ARβ (mArβ); experiment: Medaka ARβ reporter gene assay, antagonist assay; type: cell-based, Japanese medaka (Oryzias latipes)
[7] = 940 μg/L measured, 21 d, sig. ↓ vs control
[8] = measured concentration 58.4 μg/L
[9] = measured concentration 227 μg/L
[10] = measured concentration 940 μg/L

CCC(C)(C)c1ccc(O)cc1 [Chemical 4tPP, 4‐tert‐Pentylphenol]
Fertility rate ([1]; 58.4 μg/L measured, 21 d): 94 ± 1.7% | Hepatic VTG, female ([1]; 58.4 μg/L measured, 21 d): 2,930 ± 737 ng/mg‐liver | Mortality ([1]; 58.4 μg/L measured, 21 d): 4.2% | Mortality, number of dead fish ([1]; 58.4 μg/L measured, 21 d): 1 | Number of fertilized eggs (per female per day) ([1]; 58.4 μg/L measured, 21 d): 20 ± 3.2 | Number of total eggs (per female per day) ([1]; 58.4 μg/L measured, 21 d): 21 ± 3.1 | SSC female (joint plates with papillary processes) ([1]; 58.4 μg/L measured, 21 d): 0 ± 0 | Hepatic VTG, male ([1]; 58.4 μg/L measured, 21 d, sig. ↑ vs control): 970 ± 858 ng/mg‐liver | Fertility rate ([1]; 227 μg/L measured, 21 d): 94 ± 2.5% | Hepatic VTG, female ([1]; 227 μg/L measured, 21 d): 3,070 ± 686 ng/mg‐liver | Mortality ([1]; 227 μg/L measured, 21 d): 4.2% | Mortality, number of dead fish ([1]; 227 μg/L measured, 21 d): 1 | Number of fertilized eggs (per female per day) ([1]; 227 μg/L measured, 21 d): 19 ± 2.9 | Number of total eggs (per female per day) ([1]; 227 μg/L measured, 21 d): 20 ± 2.7 | SSC female (joint plates with papillary processes) ([1]; 227 μg/L measured, 21 d): 0 ± 0 | Hepatic VTG, male ([1]; 227 μg/L measured, 21 d, sig. ↑ vs control): 3,700 ± 2,300 ng/mg‐liver | Fertility rate ([1]; 940 μg/L measured, 21 d): 81 ± 8.9% | Mortality ([1]; 940 μg/L measured, 21 d): 13% | Mortality, number of dead fish ([1]; 940 μg/L measured, 21 d): 3 | SSC female (joint plates with papillary processes) ([1]; 940 μg/L measured, 21 d): 0 ± 0 | Hepatic VTG, female ([1]; 940 μg/L measured, 21 d, sig. ↑ vs control): 8,100 ± 3,340 ng/mg‐liver | Number of fertilized eggs (per female per day) [1, 7]: 13 ± 3.5 | Number of total eggs (per female per day) [1, 7]: 16 ± 4.7 | Change of hepatic VTG levels in females (in words) ([1]; 21 d): significant increase | Fecundity, number of total eggs (in words) ([1]; 21 d): statistically significant decrease | LOEC, elevated hepatic VTG in males ([1]; 21 d): 58.4 µg/L | LOECREPRO ([1]; LOEC on reproduction (fecundity and/or fertility)): 940 µg/L | minimal effective concentration ([1]; Oryzias latipes, 504 h, read-out: LOECmVTG): 0.0584 µg/mL | Fertility rate (in words) ([1]; chemicals with significant decrease of number of total eggs): no significant effect | LOECREPRO (reduction in fecundity or fertility) ([1]; concentrations without overt toxicity): 940 µg/L | LOECTOX ([1]; lowest observed effect concentration on mortality): ND (>940) μg/L | GSI Female [1, 8]: 10.0 ± 0.6% | GSI Male [1, 8]: 0.89 ± 0.11% | HSI Female [1, 8]: 4.3 ± 0.50% | HSI Male [1, 8]: 2.3 ± 0.18% | Length Female [1, 8]: 36.0 ± 0.5 mm | Length Male [1, 8]: 37.8 ± 1.2 mm | Weight Female [1, 8]: 558 ± 48 mg | Weight Male [1, 8]: 590 ± 39 mg | GSI Female [1, 9]: 9.9 ± 1.0% | GSI Male [1, 9]: 0.73 ± 0.16% | HSI Female [1, 9]: 4.2 ± 0.44% | HSI Male [1, 9]: 2.2 ± 0.33% | Length Female [1, 9]: 35.5 ± 0.7 mm | Length Male [1, 9]: 36.2 ± 0.6 mm | Weight Female [1, 9]: 523 ± 48 mg | Weight Male [1, 9]: 546 ± 23 mg | GSI Female [1, 10]: 8.9 ± 1.2% | GSI Male [1, 10]: 0.73 ± 0.13% | HSI Female [1, 10]: 3.9 ± 0.73% | HSI Male [1, 10]: 3.6 ± 0.50% | Length Female [1, 10]: 36.1 ± 1.6 mm | Length Male [1, 10]: 35.6 ± 0.8 mm | Weight Female [1, 10]: 588 ± 130 mg | Weight Male [1, 10]: 509 ± 47 mg | Agonistic activity [2]: NE (MAC = 1.0 × 10^−4 M) | In vitro positive: Esr [3]: Esr | LOEC on abnormal sexual differentiation [4]: 224 µg/L | LOEC on hepatic VTG induction [4]: ≤ 51.1 µg/L | LOEC on reproductive impairment [4]: 224 µg/L | Antagonistic activity [5]: NE (MAC = 1.0 × 10^−5 M)^(B) | Antagonistic activity IC30 ([6]; 11‐KT spiked at 50 nM (D)): IC30 = 1.7 × 10^−5 M^(D) | In vitro positive: aAr ([6]; mode of action in which IC50 or IC30 was obtained in RGA): aAr | Antagonistic activity on mArβ (in words) ([6]; transcriptional activity on mArβ by 11KT): inhibitory potency
